The test has as its system Pythium. Nature of the test: Cotton field trial, Pythium-infected seeds, seed treatment, control or Pythium-inoculated soil (Example 2). It is filed as in vivo. An excerpt:
The seeds were planted in a field, either in soil that had been inoculated with Pythium (Soil Inoc. with Pythium), or in soil that had not been inoculated with Pythium (Ctrl.), then allowed to grow. Concentrations and compositions of triadimenol, metalaxyl, and saponin are the same as given in Example 1. For cotton, the industry standard dosage of metalaxyl is 15.5 grams of active ingredient per 100 kilograms of seed (15.5 GA/100 Kg). […] The data of TABLE 2 are shown graphically in FIG. 2. The relative densities for the data of TABLE 2 and FIG. 2 were calculated with reference to the 15.5 GA/100 Kg metalaxyl category. As shown by TABLE 2 and FIG. 2, inoculation of the soil with Pythium was correlated with a general decrease in cotton seedling count and density (compare Ctrl. versus Inoc.).

Setting [1] is: Metalaxyl 15.5 GA/100 Kg, 34 DAA, Ctrl. soil.
The mark [2] stands for this setting: Metalaxyl 15.5 GA/100 Kg, 34 DAA, Soil Inoc. with Pythium.
The mark [3] stands for this setting: Metalaxyl 15.5 GA/100 Kg, 46 DAA, Ctrl. soil.
[4] abbreviates: Metalaxyl 15.5 GA/100 Kg, 46 DAA, Soil Inoc. with Pythium.
[5] abbreviates: Metalaxyl 31 GA/100 Kg, 34 DAA, Ctrl. soil.
The mark [6] stands for this setting: Metalaxyl 31 GA/100 Kg, 34 DAA, Soil Inoc. with Pythium.
Setting [7] is: Metalaxyl 31 GA/100 Kg, 46 DAA, Ctrl. soil.
The mark [8] stands for this setting: Metalaxyl 31 GA/100 Kg, 46 DAA, Soil Inoc. with Pythium.

Turning to `COCC(=O)N(c1c(C)cccc1C)C(C)C(=O)OC` (stereo not drawn) [Metalaxyl], the “Relative Density” value runs as follows: (Metalaxyl 15.5 GA/100 Kg (reference), 34 DAA, Ctrl. soil) 100; (Metalaxyl 15.5 GA/100 Kg (reference), 34 DAA, Soil Inoc. with Pythium) 100; (Metalaxyl 15.5 GA/100 Kg (reference), 46 DAA, Ctrl. soil) 100; (Metalaxyl 15.5 GA/100 Kg (reference), 46 DAA, Soil Inoc. with Pythium) 100; under setting [5], 102.7; under setting [6], 106. The “Relative Density” value amounted to 98.7 under setting [7] and 100 under setting [8]. The Count under setting [1] is on record as 37; the Count under setting [2] is listed as 25; the Count under setting [3] was 37.5; the Count under setting [4] is 24.5; the Count under setting [5] stood at 38; the Count under setting [6] is recorded as 26.5. The Count by setting is: under setting [7], 37; under setting [8], 24.5. The Density is given as 74 under setting [1]; 50 under setting [2]; 75 under setting [3]; 49 under setting [4]; 76 under setting [5]; 53 under setting [6]. Also, the Density reads like this: under setting [7], 74; under setting [8], 49.
